Test results published in article PMC11822212, “High-throughput screening identifies Aurora kinase B as a critical therapeutic target for Merkel cell carcinoma” (Nature Communications, 2025).
“And” between values parts separate entries of the source, which are not always exact repeats. Equal entries are not always repeated. Structures can show the parent of a compound that is named as a salt. Where two headings read alike, the source gives them in different places.

Assays:
MCC13 cells (VN-MCC) = assay: qHTS cell viability (CellTiter-Glo, 72 h; primary and follow-up small molecule screen); assay type: cell-based, human
MCC26 cells (VN-MCC) = assay: as above; assay type: cell-based, human
UISO cells (VN-MCC) = assay: as above; assay type: cell-based, human
WAGA cells (VP-MCC) = assay: as above; assay type: cell-based, human
MKL-1 cells (VP-MCC) = assay: as above; assay type: cell-based, human
MKL-2 cells (VP-MCC) = assay: as above; assay type: cell-based, human
HACAT cells = assay: qHTS cell viability (CellTiter-Glo, 72 h; primary screen), control cell line; assay type: cell-based, human
HEK293T cells = assay: as above; assay type: cell-based, human
NIH-3T3 cells = assay: as above; assay type: cell-based, mouse
CRL-7250 cells = assay: as above; assay type: cell-based
[1] = tested on: MCC cell lines (WAGA, MKL-1, MKL-2, MCC13, MCC26, UISO); assay: qHTS cell viability, all six MCC cell lines as a group (mean AUC, MCC.avg); assay type: cell-based, human
[2] = tested on: VP-MCC cell lines (WAGA, MKL-1, MKL-2); assay: qHTS cell viability, VP-MCC cell lines as a group (mean AUC, VP.MCC.avg); assay type: cell-based, human
[3] = tested on: VN-MCC cell lines (MCC13, MCC26, UISO); assay: qHTS cell viability, VN-MCC cell lines as a group (mean AUC, VN.MCC.avg); assay type: cell-based, human
[4] = tested on: control cell lines (HACAT, HEK293T, CRL-7250, NIH-3T3); assay: qHTS cell viability, control cell lines as a group (mean AUC, Control.avg); assay type: cell-based
[5] = tested on: six MCC cell lines and four control cell lines; assay: qHTS cell viability, all 10 cell lines screened; assay type: cell-based
[6] = MIPE library, 11-point DRC, sheet S2E
[7] = MIPE library, 11-point DRC, control cell line, sheet S2E

In the case of `COc1ccc2c3c1O[C@H]1[C@@H](O)C=C[C@H]4[C@@H](C2)N(C)CC[C@@]341` [Codeine hydrochloride], the MCC13_AUC (MCC13 cells (VN-MCC)) is reported as 404.155, the MCC26_AUC (MCC26 cells (VN-MCC)) is reported as 404.512 and the UISO_AUC (UISO cells (VN-MCC)) is reported as 365.394. It also gave a WAGA_AUC (WAGA cells (VP-MCC)) of 360.01, an MKL1_AUC (MKL-1 cells (VP-MCC)) of 362.385 and an MKL2_AUC (MKL-2 cells (VP-MCC)) of 316.851. For the same compound, the HACAT_AUC (HACAT cells) was 474.439, the HEK293T_AUC (HEK293T cells) was 441.34 and the NIH3T3_AUC (NIH-3T3 cells) was 465.288 and 465.287. For the same compound, the CRL7250_AUC (CRL-7250 cells) was 458.141, the MCC_Avg_AUC [1] was 368.884 and the Control-VP-MCC [2] was 113.387. For the same compound, the VP-MCC_Avg_AUC [2] was 346.415, the Control-VN-MCC [3] was 68.4482 and the VN-MCC_Avg_AUC [3] was 391.354. It also gave a Control_Avg_AUC [4] of 459.802 and a Control-MCC [5] of 90.9174.

`CC(C)(O)/C=C/C(=O)[C@](C)(O)[C@H]1[C@H](O)C[C@@]2(C)[C@@H]3CC=C4[C@@H](C=C(O)C(=O)C4(C)C)[C@]3(C)C(=O)C[C@]12C` [Cucurbitacin I] was tested, and the MCC13_AUC (MCC13 cells (VN-MCC)) was 297.405, the MCC26_AUC (MCC26 cells (VN-MCC)) was 343.064 and the UISO_AUC (UISO cells (VN-MCC)) was 252.668. The WAGA_AUC (WAGA cells (VP-MCC)) was 216.289, the MKL1_AUC (MKL-1 cells (VP-MCC)) was 212.417 and the MKL2_AUC (MKL-2 cells (VP-MCC)) was 186.366. The HACAT_AUC (HACAT cells) was 326.184, the HEK293T_AUC (HEK293T cells) was 307.458 and the NIH3T3_AUC (NIH-3T3 cells) was 387.943. The CRL7250_AUC (CRL-7250 cells) was 234.715, the MCC_Avg_AUC [1] was 251.368 and the Control-VP-MCC [2] was 109.051. It also gave a VP-MCC_Avg_AUC [2] of 205.024, a Control-VN-MCC [3] of 16.3626 and a VN-MCC_Avg_AUC [3] of 297.712. The Control_Avg_AUC [4] was 314.075 and the Control-MCC [5] was 62.7066.

Compound `COc1cc(/C=C/C(=O)CC(=O)/C=C/c2ccc(O)c(OC)c2)ccc1O` [Curcumin] has an MCC13_AUC (MCC13 cells (VN-MCC); [6]) of 449.9, an MCC26_AUC (MCC26 cells (VN-MCC); [6]) of 458.412 and a UISO_AUC (UISO cells (VN-MCC); [6]) of 416.827. The WAGA_AUC (WAGA cells (VP-MCC); [6]) was 392.592, the MKL1_AUC (MKL-1 cells (VP-MCC); [6]) was 382.508 and the MKL2_AUC (MKL-2 cells (VP-MCC); [6]) was 342.595. It also gave an HACAT_AUC (HACAT cells; [7]) of 459.473, an HEK293T_AUC (HEK293T cells; [7]) of 422.758 and an NIH3T3_AUC (NIH-3T3 cells; [7]) of 423.932. It also gave a CRL7250_AUC (CRL-7250 cells; [7]) of 433.368, an MCC_Avg_AUC ([1]; MIPE library, mean AUC of six MCC cell lines, sheet S2E) of 407.139 and a Control-VP-MCC ([2]; MIPE library, Control AUC minus VP-MCC AUC (therapeutic window), sheet S2E) of 62.3178. For the same compound, the VP-MCC_Avg_AUC ([2]; MIPE library, mean AUC of VP-MCC cell lines, sheet S2E) was 372.565, the Control-VN-MCC ([3]; MIPE library, Control AUC minus VN-MCC AUC (therapeutic window), sheet S2E) was -6.83 and the VN-MCC_Avg_AUC ([3]; MIPE library, mean AUC of VN-MCC cell lines, sheet S2E) was 441.713. For the same compound, the Control_Avg_AUC ([4]; MIPE library, mean AUC of control cell lines, sheet S2E) was 434.883 and the Control-MCC ([5]; MIPE library, Control AUC minus MCC AUC (therapeutic window), sheet S2E) was 27.7437.

For `COc1cc(/C=C2\CCC/C(=C\c3ccc(O)c(OC)c3)C2=O)ccc1O` [Cyclovalone], the MCC13_AUC (MCC13 cells (VN-MCC); NPC library, qHTS dose-response AUC, MCC13) was 435.637, the “Area under the dose-response curve (AUC) MCC13 Replicate 1” value (MCC13 cells (VN-MCC); follow-up screen, MCC13, replicate 1) was 472.8 and the “Area under the dose-response curve (AUC) MCC13 Replicate 2” value (MCC13 cells (VN-MCC); follow-up screen, MCC13, replicate 2) was 478.9. The “Area under the dose-response curve (AUC) MCC13 Replicate 3” value (MCC13 cells (VN-MCC); follow-up screen, MCC13, replicate 3) was 414.2, the MCC26_AUC (MCC26 cells (VN-MCC); NPC library, qHTS dose-response AUC, MCC26) was 456.812 and the “Area under the dose-response curve (AUC) MCC26 Replicate 1” value (MCC26 cells (VN-MCC); follow-up screen, MCC26, replicate 1) was 446.8. For the same compound, the “Area under the dose-response curve (AUC) MCC26 Replicate 2” value (MCC26 cells (VN-MCC); follow-up screen, MCC26, replicate 2) was 450.2, the “Area under the dose-response curve (AUC) MCC26 Replicate 3” value (MCC26 cells (VN-MCC); follow-up screen, MCC26, replicate 3) was 451.9 and the UISO_AUC (UISO cells (VN-MCC); NPC library, qHTS dose-response AUC, UISO) was 420.96. For the same compound, the “Area under the dose-response curve (AUC) UISO Replicate 1” value (UISO cells (VN-MCC); follow-up screen, UISO, replicate 1) was 445.7, the “Area under the dose-response curve (AUC) UISO Replicate 2” value (UISO cells (VN-MCC); follow-up screen, UISO, replicate 2) was 433.0 and the “Area under the dose-response curve (AUC) UISO Replicate 3” value (UISO cells (VN-MCC); follow-up screen, UISO, replicate 3) was 430.4. For the same compound, the WAGA_AUC (WAGA cells (VP-MCC); NPC library, qHTS dose-response AUC, WAGA) was 394.525, the “Area under the dose-response curve (AUC) WAGA Replicate 1” value (WAGA cells (VP-MCC); follow-up screen, WAGA, replicate 1) was 469.4 and the “Area under the dose-response curve (AUC) WAGA Replicate 2” value (WAGA cells (VP-MCC); follow-up screen, WAGA, replicate 2) was 402.6. For the same compound, the “Area under the dose-response curve (AUC) WAGA Replicate 3” value (WAGA cells (VP-MCC); follow-up screen, WAGA, replicate 3) was 413.8, the MKL1_AUC (MKL-1 cells (VP-MCC); NPC library, qHTS dose-response AUC, MKL1) was 383.35 and the “Area under the dose-response curve (AUC) MKL-1 Replicate 1” value (MKL-1 cells (VP-MCC); follow-up screen, MKL-1, replicate 1) was 414.7. For the same compound, the “Area under the dose-response curve (AUC) MKL-1 Replicate 2” value (MKL-1 cells (VP-MCC); follow-up screen, MKL-1, replicate 2) was 411.0, the “Area under the dose-response curve (AUC) MKL-1 Replicate 3” value (MKL-1 cells (VP-MCC); follow-up screen, MKL-1, replicate 3) was 407.6 and the MKL2_AUC (MKL-2 cells (VP-MCC); NPC library, qHTS dose-response AUC, MKL2) was 366.589. For the same compound, the “Area under the dose-response curve (AUC) MKL-2 Replicate 1” value (MKL-2 cells (VP-MCC); follow-up screen, MKL-2, replicate 1) was 366.1, the “Area under the dose-response curve (AUC) MKL-2 Replicate 2” value (MKL-2 cells (VP-MCC); follow-up screen, MKL-2, replicate 2) was 391.5 and the “Area under the dose-response curve (AUC) MKL-2 Replicate 3” value (MKL-2 cells (VP-MCC); follow-up screen, MKL-2, replicate 3) was 417.0. The HACAT_AUC (HACAT cells; NPC library, qHTS dose-response AUC, HACAT control) was 441.291, the HEK293T_AUC (HEK293T cells; NPC library, qHTS dose-response AUC, HEK293T control) was 422.832 and the NIH3T3_AUC (NIH-3T3 cells; NPC library, qHTS dose-response AUC, NIH3T3 control) was 447.034. It also gave a CRL7250_AUC (CRL-7250 cells; NPC library, qHTS dose-response AUC, CRL7250 control) of 455.387, an MCC_Avg_AUC ([1]; NPC library, mean AUC of six MCC cell lines) of 409.645 and a VP-MCC_Avg_AUC ([2]; NPC library, mean AUC of VP-MCC cell lines) of 381.488. The Control-VP-MCC ([2]; NPC library, therapeutic window: Control avg AUC minus VP-MCC avg AUC) was 60.1479, the VN-MCC_Avg_AUC ([3]; NPC library, mean AUC of VN-MCC cell lines) was 437.803 and the Control-VN-MCC ([3]; NPC library, therapeutic window: Control avg AUC minus VN-MCC avg AUC) was 3.833. It also gave a Control_Avg_AUC ([4]; NPC library, mean AUC of control cell lines) of 441.636 and a Control-MCC ([5]; NPC library, therapeutic window: Control avg AUC minus MCC avg AUC) of 31.9905.
